The values below are quoted from earlier work in patent US20050197342A1, “Substituted nitrogen-containing six-membered amino-heterocycles as vanilloid-1 receptor antagonists for treating pain” (priority 2003, published 2005).

The target of the data set is VR1 (Rattus norvegicus, UniProt O35433). As to conditions: Wahl et al., Mol. Pharmacol., 59:9, 2001.
Chain of VR1 (O35433 whole entry): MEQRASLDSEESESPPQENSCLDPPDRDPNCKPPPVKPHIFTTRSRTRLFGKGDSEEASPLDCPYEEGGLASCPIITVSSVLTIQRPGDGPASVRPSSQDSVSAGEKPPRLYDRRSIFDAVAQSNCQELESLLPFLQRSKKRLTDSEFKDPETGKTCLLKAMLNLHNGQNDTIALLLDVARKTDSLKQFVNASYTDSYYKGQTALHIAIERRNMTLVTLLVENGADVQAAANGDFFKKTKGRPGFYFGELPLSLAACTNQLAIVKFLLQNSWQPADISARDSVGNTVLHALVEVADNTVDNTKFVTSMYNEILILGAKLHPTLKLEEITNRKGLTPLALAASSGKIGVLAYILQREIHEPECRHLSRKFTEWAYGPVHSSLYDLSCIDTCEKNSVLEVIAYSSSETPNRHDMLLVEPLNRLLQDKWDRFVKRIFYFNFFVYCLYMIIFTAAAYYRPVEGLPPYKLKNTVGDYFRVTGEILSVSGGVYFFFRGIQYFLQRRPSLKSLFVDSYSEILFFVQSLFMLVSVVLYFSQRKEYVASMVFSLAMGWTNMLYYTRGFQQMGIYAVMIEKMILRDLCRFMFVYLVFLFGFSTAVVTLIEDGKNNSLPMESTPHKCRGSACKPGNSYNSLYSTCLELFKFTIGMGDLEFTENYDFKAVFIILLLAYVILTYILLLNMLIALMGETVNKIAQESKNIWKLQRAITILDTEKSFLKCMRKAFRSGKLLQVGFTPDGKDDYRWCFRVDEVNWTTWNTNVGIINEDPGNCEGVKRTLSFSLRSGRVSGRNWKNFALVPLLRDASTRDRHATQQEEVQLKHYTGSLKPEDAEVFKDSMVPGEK

In the case of `C=C(C)[C@]12C[C@@H](C)[C@@]34O[C@](Cc5ccccc5)(O[C@@H]1[C@@H]3C=C(COC(=O)Cc1cc(I)c(O)c(OC)c1)C[C@]1(O)C(=O)C(C)=C[C@@H]41)O2` [Iodo-resiniferatoxin], the “antagonist of VR1” value is listed as “nanomolar antagonist”.
